# In patent publication US20230165252A1, “ACTIVE COMPOUND COMBINATIONS” (Bayer Aktiengesellschaft, priority 2020, published 2023):
# Where “and” joins values, the source holds several entries; their conditions need not be identical. Equal values may be shown once. Read-outs that look alike come from different tables or passages of the source.
# Key:
# Assay type in all cases: cell-based
# Botrytis cinerea = experiment: in vitro-Test with Botrytis cinerea (microtiter growth inhibition); conditions: for Efficacy: applied alone
# Method in brief: (§1)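 Test compound or combination in methanol plus alkylaryl-polyglycol-ether emulsifier was dried into microtiter wells, then overlaid with liquid potato dextrose medium seeded with spores or mycelium. Plates were held at 20° C. and 85% relative humidity, and growth was read photometrically at 620 nm after 3-5 days. Efficacy is relative to untreated control.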
# Cordana musae = experiment: in vitro-Test with Cordana musae (microtiter growth inhibition); conditions: single substance
# Procedure: (§2) The degree of efficacy expressed in % is denoted: 0% means an efficacy, which corresponds to that of the control, while an efficacy of 100% means that no disease is observed.
# (§3) If the actual fungicidal activity exceeds the calculated value, then the activity of the combination is super-additive, i.e. a synergistic effect exists. In this case, the efficacy, which was actually observed, must be greater than the value for the expected efficacy (E), that was calculated from the abovementioned formula.
# (§4) Example: In Vitro-Test with Fungal Microorganisms
# (§5) Wells of 96-well microtiter plates are filled with 10 μl of a preparation of test compound or compound combination in methanol+emulsifier alkylaryl-polyglycol-ether. Thereafter, the solvent is evaporated in a hood. At the next step, 100 μl of liquid potato dextrose medium is given into each well, that has been amended with an appropriate concentration of spores or mycelium suspension of the test fungus.
# (§6) With the aid of a photometer, the extinction in all wells is measured at the wavelength of 620 nm.
# (§7) The microtiter plates are incubated at 20° C. and 85% relative humidity. The inhibition of growth is determined again photometrically 3-5 days after the application. Efficacy is calculated in relation to the untreated control, 0% efficacy means fungal growth as high as in untreated control while 100% efficacy means no fungal growth is measured.
# Cercospora beticola = experiment: in vitro-Test with Cercospora beticola (microtiter growth inhibition); conditions: alone
# Procedure: as §2, §3, §4, §5, §6, §7
# Fusarium culmorum = experiment: in vitro-Test with Fusarium culmorum (microtiter growth inhibition)
# Procedure: as §2, §3, §4, §5, §6, §7
# Diaporthe citri = experiment: in vitro-Test with Diaporthe citri (microtiter growth inhibition); conditions: applied alone
# Method in brief: as §1
# [1] = system: Ustilago segetum var. avenae; experiment: in vitro-Test with Ustilago segetum var. avenae (microtiter growth inhibition)
# Procedure: as §2, §3, §4, §5, §6, §7
# Alternaria alternate = experiment: in vitro-Test with Alternaria alternate (microtiter growth inhibition)
# Method in brief: as §1
# [2] = compound alone, read-out: Efficacy %
# [3] = single compound, read-out: Efficacy %
structure (smiles),measurement,setting,value
"CCN(C)C=Nc1cc(C)c(Oc2ccccc2F)cc1Cl [Compound 15.064, N′-[2-chloro-4-(2-fluorophenoxy)-5-methylphenyl]-N-ethyl-N-methylimidoformamide]",inhibition of growth at 0.04 ppm,"Botrytis cinerea; Botrytis cinerea, single active at 0.04 ppm, read-out: Efficacy %",0%
same,inhibition of growth at 0.2 ppm,"Botrytis cinerea; Botrytis cinerea, single active at 0.2 ppm, read-out: Efficacy %",100%
same,inhibition of growth at 1 ppm,"Botrytis cinerea; Botrytis cinerea, single active at 1.0 ppm, read-out: Efficacy %",100%
same,inhibition of growth at 5 ppm,"Botrytis cinerea; Botrytis cinerea, single active at 5.0 ppm, read-out: Efficacy %",100%
same,Efficacy,Botrytis cinerea; 0.080 ppm,0%
same,Efficacy,Botrytis cinerea; 0.4 ppm,0%
same,Efficacy,Botrytis cinerea; 2 ppm,31%
same,inhibition of growth at 0.08 ppm,"Cordana musae; Neocordana musae, 0.080 ppm, read-out: Efficacy",0%
same,inhibition of growth at 0.4 ppm,"Cordana musae; Neocordana musae, 0.4 ppm, read-out: Efficacy",18%
same,inhibition of growth at 2 ppm,"Cordana musae; Neocordana musae, 2 ppm, read-out: Efficacy",14%
same,inhibition of growth at 10 ppm,"Cordana musae; Neocordana musae, 10 ppm, read-out: Efficacy",5%
same,inhibition of growth at 0.08 ppm,"Cercospora beticola; Cercospora beticola, 0.08 ppm, read-out: Efficacy %",0%
same,inhibition of growth at 0.4 ppm,"Cercospora beticola; Cercospora beticola, 0.4 ppm, read-out: Efficacy %",0%
same,inhibition of growth at 10 ppm,"Cercospora beticola; Cercospora beticola, 10 ppm, read-out: Efficacy %",14%
same,inhibition of growth at 0.4 ppm,"Fusarium culmorum; Fusarium culmorum, 0.4 ppm, read-out: Efficacy",0%
same,inhibition of growth at 2 ppm,"Fusarium culmorum; Fusarium culmorum, 2 ppm, read-out: Efficacy",1%
same,inhibition of growth at 10 ppm,"Fusarium culmorum; Fusarium culmorum, 10 ppm, read-out: Efficacy",9%
same,inhibition of growth at 0.08 ppm,"Diaporthe citri; Diaporthe citri, 0.080 ppm, read-out: Efficacy",11%
same,inhibition of growth at 0.4 ppm,"Diaporthe citri; Diaporthe citri, 0.4 ppm, read-out: Efficacy",2%
same,inhibition of growth at 2 ppm,"Diaporthe citri; Diaporthe citri, 2 ppm, read-out: Efficacy",5%
same,inhibition of growth at 0.4 ppm,[1]; [2],0%
same,inhibition of growth at 2 ppm,[1]; [2],41%
same,inhibition of growth at 10 ppm,[1]; [2],100%
same,inhibition of growth at 0.08 ppm,"[1]; single compound, 0.08 ppm, read-out: Efficacy %",1%
same,inhibition of growth at 0.4 ppm,[1]; [3],2%
same,inhibition of growth at 2 ppm,[1]; [3],68%
same,inhibition of growth at 10 ppm,[1]; [3],100%
CC1COC(Cn2cncn2)(c2ccc(Oc3ccc(Cl)cc3)cc2Cl)O1 (stereo not shown) [difenoconazole],inhibition of growth at 0.008 ppm,"Cordana musae; Neocordana musae, 0.008 ppm, read-out: Efficacy",0%
same,inhibition of growth at 1 ppm,"Cordana musae; Neocordana musae, 1.0 ppm, read-out: Efficacy",42%
same,inhibition of growth at 0.008 ppm,"Cercospora beticola; Cercospora beticola, 0.008 ppm, read-out: Efficacy %",9%
same,inhibition of growth at 0.2 ppm,"Cercospora beticola; Cercospora beticola, 0.2 ppm, read-out: Efficacy %",68%
same,inhibition of growth at 1 ppm,"Cercospora beticola; Cercospora beticola, 1.0 ppm, read-out: Efficacy %",100%
same,inhibition of growth at 0.008 ppm,"Fusarium culmorum; Fusarium culmorum, 0.008 ppm, read-out: Efficacy",3%
same,inhibition of growth at 0.04 ppm,"Fusarium culmorum; Fusarium culmorum, 0.04 ppm, read-out: Efficacy",8%
same,inhibition of growth at 0.2 ppm,"Fusarium culmorum; Fusarium culmorum, 0.2 ppm, read-out: Efficacy",0%
same,inhibition of growth at 1 ppm,"Fusarium culmorum; Fusarium culmorum, 1.0 ppm, read-out: Efficacy",0%
same,inhibition of growth at 0.04 ppm,"Diaporthe citri; Diaporthe citri, 0.04 ppm, read-out: Efficacy",13%
same,inhibition of growth at 1 ppm,"Diaporthe citri; Diaporthe citri, 1.0 ppm, read-out: Efficacy",88%
same,Efficacy,Diaporthe citri; 0.008 ppm,0%
same,inhibition of growth at 0.04 ppm,"[1]; single compound, 0.04 ppm, read-out: Efficacy %",4%
same,inhibition of growth at 0.2 ppm,"[1]; single compound, 0.2 ppm, read-out: Efficacy %",70%
same,inhibition of growth at 1 ppm,"[1]; single compound, 1.0 ppm, read-out: Efficacy %",100%
same,inhibition of growth at 0.008 ppm,"Alternaria alternate; Alternaria, 0.008 ppm, alone, read-out: Efficacy %",8%
same,inhibition of growth at 0.04 ppm,"Alternaria alternate; Alternaria, 0.04 ppm, alone, read-out: Efficacy %",4%
same,inhibition of growth at 1 ppm,"Alternaria alternate; Alternaria, 1.0 ppm, alone, read-out: Efficacy %",98%
same,inhibition of growth at 0.008 ppm,"Alternaria alternate; Alternaria, applied alone, 0.008 ppm, read-out: Efficacy",11%
same,inhibition of growth at 0.2 ppm,"Alternaria alternate; Alternaria, applied alone, 0.2 ppm, read-out: Efficacy",3%
CC(C)c1ccc(Cl)cc1CN(C(=O)c1c(C(F)F)nn(C)c1F)C1CC1 [isoflucypram],Efficacy,Cordana musae; 0.008 ppm,0%
same,Efficacy,Cordana musae; 0.04 ppm,10% and 12%
same,Efficacy,Cordana musae; 0.2 ppm,0%
same,Efficacy,Cordana musae; 1.0 ppm,18% and 8%
same,Efficacy %,Cercospora beticola; 0.008 ppm,11%
same,Efficacy %,Cercospora beticola; 0.04 ppm,16%
same,Efficacy %,Cercospora beticola; 1.0 ppm,35% and 39%
same,Efficacy,Fusarium culmorum; 0.008 ppm,0%
same,Efficacy,Fusarium culmorum; 0.04 ppm,0%
same,Efficacy,Fusarium culmorum; 0.2 ppm,0%
same,Efficacy,Fusarium culmorum; 1.0 ppm,0%
same,Efficacy,Diaporthe citri; 0.008 ppm,0%
same,Efficacy,Diaporthe citri; 0.04 ppm,0%
same,Efficacy,Diaporthe citri; 0.2 ppm,0%
same,Efficacy,Diaporthe citri; 1.0 ppm,49% and 41%
same,Efficacy %,"[1]; single compound, 0.008 ppm",0%
same,Efficacy %,"[1]; single compound, 0.04 ppm",45%
same,Efficacy %,"[1]; single compound, 0.2 ppm",100%
same,Efficacy %,"[1]; single compound, 1.0 ppm",100%
same,Efficacy %,"Alternaria alternate; 0.008 ppm, alone",44% and 41%
same,Efficacy %,"Alternaria alternate; 0.04 ppm, alone",69% and 76%
same,Efficacy %,"Alternaria alternate; 0.2 ppm, alone",85% and 81%
same,Efficacy %,"Alternaria alternate; 1.0 ppm, alone",74%
same,Efficacy,"Alternaria alternate; applied alone, 0.008 ppm",53%
same,Efficacy,"Alternaria alternate; applied alone, 0.04 ppm",71%
same,Efficacy,"Alternaria alternate; applied alone, 0.2 ppm",73%
